Measured values published in publication PMC9582199, “Molecular architecture of the glycogen- committed PP1/PTG holoenzyme” (Nature Communications, 2022).
Like-named read-outs stand apart in the source and are kept apart here.

How the values were obtained:
[1] = biological target: T1, PP1 7-330 (Homo sapiens, UniProt P62136); assay: GCI binding kinetics of PTG-derived peptides on captured PP1; conditions: 25 °C, 6xHis-PP1 7-330 captured on NTA chip, peptide 1:2 dilutions from 300 nM
T1 construct: reversibly capturing 6xHis-tagged PP1^7-330; host or cells: E. coli BL21 (DE3) pGro7
Method: (§1) Grating-coupled interferometry (GCI) experiments were performed using the Creoptix WAVE system, a new generation instrument for the high-sensitivity kinetics and affinity analysis of label-free molecular interactions based on the waveguide interferometry technology. Waveguide interferometry exceeds the sensitivity levels of Surface Plasmon Resonance (SPR). […] GCI allows getting high resolution even at very low signal levels with low noise without artificial data averaging and reliable kinetics below 1 pg/mm^2. By the lower immobilization levels that are required, it avoids mass transport limitations. It covers the broadest kinetic range with the capability of analyzing of the ultra-fast transition times (i.e. 150 ms). It allows the reliable determination of off-rates of 5 s^–1 and even faster, enabling off-rate screening of weakly binding analytes. GCI can be applied to a wide range of pharmacological targets, with improved results on very low molecular weight compounds, to the dimensions of metal ions[56].
(§2) WAVE chips are composed of four channels or cells. Borate buffer (100 mM sodium borate pH 9.0, 1 M NaCl) was used for chip conditioning. […]
(§3) Supplementary Figure 3: Quantitative binding kinetics by GCI. […]

[2] = tested on: PP1; assay: Literature binding of GM constructs to PP1; conditions: GM 64–105 (KD 114 nM, ref 12) compared with the corresponding PTG peptide
[3] = biological target: T2, PTG CBM21 (residues 132–264) (Homo sapiens, UniProt Q9UQK1); assay: ITC titration of PTG CBM21 with β-cyclodextrin; format: binding; conditions: 25 °C
T2 sequence (Q9UQK1 132-264): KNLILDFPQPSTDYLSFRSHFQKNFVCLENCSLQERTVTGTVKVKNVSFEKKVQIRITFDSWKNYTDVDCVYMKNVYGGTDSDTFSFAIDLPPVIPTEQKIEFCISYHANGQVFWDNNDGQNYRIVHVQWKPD
Method: ITC experiments were performed using an ITC 200 microcalorimeter (Malvern Panalytical, UK) at 25 °C with a stirring speed of 750 rpm in 25 mM Hepes pH 7.4, 0.2 M NaCl, 5% glycerol with 180 s separating the injections. β-cyclodextrin was dissolved in the running buffer and two datasets were collected, one with PTG CBM21 concentration at 100 μM and β-cyclodextrin at 3 mM with 40 injections of 1 µl, the other at 200 μM and 4 mM, respectively, with 80 injections of 1 µl. A blank run with only the buffer was carried out. Data analysis was done with ORIGIN subtracting the blank titrations fitting ‘one site’ and ‘two sites’ models.

[4] = biological target: GM CBM21; conditions: cited from earlier work
Source text: (§4) The same two sugar-binding sites have been identified in the crystal structures of Rhizopus oryzae CBM21[13],[14]; site II is the primary binding site, while site I has been hypothesized to contribute to the binding of long-chain soluble polysaccharides and insoluble starch or to the relaxation and unwinding of helical amylose[15],[16].

[5] = biological target: R. oryzae CBM21; conditions: cited from earlier work
Source text: as §4

[6] = biological target: T3, PTG132-264 (CBM) (Homo sapiens, UniProt Q9UQK1); assay: GCI binding kinetics of β-cyclodextrin on immobilized PTG; conditions: 25 °C, 10 mM Hepes pH 7.2, 150 mM NaCl, 0.005% Tween 20, 1:3 dilutions from 500 µM
T3 sequence (Q9UQK1 132-264): T2 sequence (Q9UQK1 132-264)
Method: as §1, §2, §3

[7] = 'two sites' model with stoichiometry fixed, average of two runs
[8] = 'two sites' model, average of two runs
[9] = 'two sites' model, average of two separate runs

T1 sequence (P62136 7-330): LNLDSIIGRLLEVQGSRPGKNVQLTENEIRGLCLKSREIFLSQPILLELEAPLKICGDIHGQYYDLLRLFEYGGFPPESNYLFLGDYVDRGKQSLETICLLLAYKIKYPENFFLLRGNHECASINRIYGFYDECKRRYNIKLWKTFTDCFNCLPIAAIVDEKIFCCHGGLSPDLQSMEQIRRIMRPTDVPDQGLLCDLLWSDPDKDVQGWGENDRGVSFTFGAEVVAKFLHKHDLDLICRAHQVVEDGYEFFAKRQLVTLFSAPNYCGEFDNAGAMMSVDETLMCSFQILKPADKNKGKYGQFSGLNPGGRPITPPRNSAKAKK

PTG81-132: extended PTG peptide, residues 81–132, including RVVF and SALK sequences; ProteoGenix SAS (AKKRVVFADSKGLSLTAIHVFSDLPEEPAWDLQFDLLDLNDISSALKHHEEK)
KD by GCI for binding to PP1 [1]: almost halved

GM peptide 64–105: GM (PPP1R3A) peptide 64–105, corresponding to PTG 84–131; literature comparator (VSFADSFGFNLVSVKEFDCWELPSASTTFDLGTDIFHTEEYV; UniProt Q16821 64-105, looked up, fragment)
times weaker PP1 binding than measured for PTG [2]: ~15 times

OC[C@H]1O[C@@H]2O[C@H]3[C@H](O)[C@@H](O)[C@@H](O[C@H]4[C@H](O)[C@@H](O)[C@@H](O[C@H]5[C@H](O)[C@@H](O)[C@@H](O[C@H]6[C@H](O)[C@@H](O)[C@@H](O[C@H]7[C@H](O)[C@@H](O)[C@@H](O[C@H]8[C@H](O)[C@@H](O)[C@@H](O[C@H]1[C@H](O)[C@H]2O)O[C@@H]8CO)O[C@@H]7CO)O[C@@H]6CO)O[C@@H]5CO)O[C@@H]4CO)O[C@@H]3CO [β-cyclodextrin]
Kd ([3]; 25 mM Hepes pH 7.4, 0.2 M NaCl, 5% glycerol, 'one site' model, average of two separate runs, read-out: KD (KD1), 1 Site model): 59 ± 5 µM | ΔS1, 1 Site model ([3]; 'one site' model, average of two separate runs): -53 cal mol-1 K-1 | N (stoichiometry), 1 Site model ([3]; 'one site' model, average of two separate runs, listed as b-cyclodextrin): 1.09 | Kd ([3]; 'two sites' model with stoichiometry fixed (N 1.0 each site), average of two runs, read-out: KD1, 2 Sites fixed model, first site): 49 ± 4 µM | ΔH1, 2 Sites fixed model, first site [3, 7]: -24.6 ± 0.7 kcal/mol | ΔS1, 2 Sites fixed model, first site [3, 7]: -62 cal mol-1 K-1 | ΔS2, 2 Sites fixed model, second site [3, 7]: 21 cal mol-1 K-1 | Kd ([3]; 'two sites' model with stoichiometry fixed, average of two runs, spread ± 154, site spurious or ancillary, read-out: KD2, 2 Sites fixed model, second site): 346 µM | ΔH2, 2 Sites model, second site [3, 8]: -16 ± 2 kcal/mol | ΔS2, 2 Sites model, second site [3, 8]: -29 cal mol-1 K-1 | N2, 2 Sites model, second site ([3]; 'two sites' model, average of two runs, paper calls second-site stoichiometry inconsistent): 0.3 | Kd ([3]; 'two sites' model, average of two runs, second site judged inconsistent, read-out: KD2, 2 Sites model, second site): 3 ± 2 µM | N1, 2 Sites model, first site [3, 9]: 1.06 | ΔH1, 2 Sites model, first site [3, 9]: -18 ± 4 kcal/mol | ΔS1, 2 Sites model, first site [3, 9]: -40 cal mol-1 K-1 | Kd ([3]; 'two sites' model, average of two separate runs, read-out: KD1, 2 Sites model, first site): 63 ± 6 µM | Kd [4]: 8.2 µM | Kd [5]: 5.1 µM | Kd [6]: 37 ± 7 µM
